From US6613322B2, “Method for treating a subject suffering from conditions associated with an extracellular zinc sphingomyelinase” (The Trustees of Columbia University in the City of New York, priority 1997, dated 2003)

Experiments:
ASM (SMase) mRNA = assay: Northern blot of SMase mRNA in HUVECs; type: cell-based, human; settings: IL-1β 5 ng/ml, 18 h
Procedure: FIG. 24. Northern blot analysis of HUVECs incubated in the absence or presence of IL-1β. HUVECs were incubated for 18 h in DMEM, 0.2% BSA alone (Con) or containing human recombinant interleukin-1β (5 ng/ml) (IL1β).
Northern Blot of SMase mRNA—Total cellular RNA was isolated from HUVECs using RNAzol B (Tel-Test. Inc., Friendswood, Tex.). Approximately 10 μg of RNA was separated on a 1% agarose gel and blotted onto a nylon membrane. The membrane was hybridized in a QuikHyb hybridization solution (Stratagene) with a 1.6-kB EcoRI-XhoI fragment of human ASM cDNA (41) that was labeled with ^32P by the random-priming Procedure (GIBCO-BRL®). The amount of RNA loaded for each condition was normalized using a probe to glyceraldehyde-3-phosphate dehydrogenase. The relative intensities of the mRNA bands were determined by densitometric scanning of the autoradiograms using a Molecular Dynamics Computing Densitometer (model 300A) with Image-Quant software.

L-SMase = assay: SMase assay of CHO cell homogenate and 16,000-x-g pellet; type: biochemical, Chinese hamster
Procedure: FIGS. 18A-B. Zn^2+-dependency of SMase in a sonicated cell homogenate and 16,000-x-g pellet. CHO cells were grown to 90% confluency in Ham's F-12 media containing 10% HI-FBS and PSG and then washed 3 times with PBS before incubation in serum-free medium containing 0.2% BSA for 24 h. The cells were then washed 3 times in 0.25 M sucrose and the total cell homogenate and the 16,000-x-g cellular subfraction were isolated as described in “Experimental Procedures”. Twelve micrograms of the cell homogenate (Homogenate) and 2.5 μg of the 16,000-x-g pellet (16K-xg Pellet) were assayed for SMase activity in the presence of either 5 mM EDTA (hatched bars) or 0.1 mM ZnCl2 (solid bars) for 1 h at 37° C. at pH 5.0. […]
SMase Assay—As previously described (Schissel et al., 1996), the standard 200-μl assay mixture consisted of up to 40 μl of sample (conditioned media or homogenized cells; see above) and a volume of assay buffer (0.1 M sodium acetate, pH 5.0) to bring the volume to 160 μl. […] The ceramide spots were scraped and directly counted to quantify [^3H]ceramide. Typically, the assay reactions contained approximately 20 μg of cellular homogenate protein and a volume of conditioned media derived from a quantity of cells equivalent to approximately 50 μg of cellular protein.

Compound | increase in SMase mRNA normalized for GAPDH mRNA (ASM (SMase) mRNA) [%] | effect of exogenous Zn2+ on SMase activity (L-SMase; 16,000-x-g pellet (intact lysosomes), sonicated) | effect of exogenous Zn2+ on SMase activity (L-SMase; sonicated cell homogenate)
IL-1β: human recombinant interleukin-1β | ~40 |  | 
[Cl-].[Cl-].[Zn+2] [Zn^2+, ZnCl2] |  | substantially stimulated | no effect
